In the oligonucleotide strings, read from the 5' end, every base follows the letter of its sugar. An asterisk marks phosphorothioate; unmarked linkages are phosphodiester. Other units and linkages are bracketed, terminal groups are in braces. A string of capitals states the bases alone. e = 2'-O-(2-methoxyethyl) (MOE); [5mC] = 5-methylcytosine
Key:
[1] = tested on: HSL; test: HSL mRNA expression in adipocytes (real-time PCR); assay type: cell-based, human; conditions: for HSL (mRNA expression): adipocytes, 250 nM oligomeric compound, day nine post-transfection, relative to control (1.0)
[2] = tested on: adipocytes; test: Triglyceride accumulation assay in adipocytes; assay type: cell-based, human; conditions: for Triglycerides: differentiating adipocytes day 10 post-induction, 24 hours after treatment
[3] = tested on: aP2; test: aP2 mRNA expression in adipocytes (real-time PCR); assay type: cell-based, human; conditions: for aP2 mRNA: Table 75; for AP2 (mRNA expression): adipocytes, 250 nM oligomeric compound, day nine post-transfection, relative to control (1.0)
[4] = tested on: HuVECs; test: Endothelial tube formation assay in HuVECs; conditions: 75 nM oligomeric compound
Procedure: In some embodiments, HUVECs are used to measure the effects of oligomeric compounds of the invention on endothelial tube formation activity. The tube formation assay is performed using an in vitro Angiogenesis Assay Kit (Chemicon International, Temecula, Calif.).
Untreated control cells receive LIPOFECTIN™ only.
Approximately fifty hours after transfection, cells are transferred to 96-well plates coated with ECMatrix™ (Chemicon International). Under these conditions, untreated HUVECs form tube-like structures. After an overnight incubation at 37° C., treated and untreated cells are inspected by light microscopy. Tube formation in cells treated with oligomeric compounds is compared to that in untreated control cells. Individual wells are assigned discrete scores from 1 to 5 depending on the extent of tube formation. A score of 1 refers to a well with no tube formation while a score of 5 is given to wells where all cells are forming an extensive tubular network.
In one embodiment, primary human umbilical vein endothelial cells (HuVECs) were used to measure the effects of oligomeric compounds targeted to miRNAs on tube formation activity. HuVECs were routinely cultured in EBM (Clonetics Corporation, Walkersville, Md.) supplemented with SingleQuots supplements (Clonetics Corporation, Walkersville, Md.). […] HuVECs are plated at 3000 cells/well in 96-well plates. One day later, cells are transfected with oligomeric compounds. The tube formation assay is performed using an in vitro Angiogenesis Assay Kit (Chemicon International, Temecula, Calif.).
ISIS 29248 and ISIS 196103 are chimeric 5-10-52′-MOE gapmer oligonucleotides. […] All cytidine residues are 5-methylcytidines. ISIS 342672 (SEQ ID NO: 789) contains 13 mismatches with respect to the mature mir-143 miRNA, and was also used as a negative control. ISIS 342672 is a uniform 2′-MOE phosphorothioate oligomeric compound 22 nucleotides in length. All cytidine residues are 5-methylcytidines.
Oligomeric compound was mixed with LIPOFECTIN™ (Invitrogen Life Technologies, Carlsbad, Calif.) in OPTI-MEM™ (Invitrogen Life Technologies, Carlsbad, Calif.) to achieve a final concentration of 75 nM of oligomeric compound and 2.25 μg/mL LIPOFECTIN™. Before adding to cells, the oligomeric compound, LIPOFECTIN™ and OPTI-MEM™ were mixed thoroughly and incubated for 0.5 hrs. Untreated control cells received LIPOFECTIN™ only. […] Compounds targeted to miRNAs were tested in triplicate, and ISIS 29848 was tested in up to six replicates. […] 100 μL of full growth medium was added to each well. Fifty hours after transfection, cells are transferred to 96-well plates coated with ECMa-trix™ (Chemicon Inter-national). Under these conditions, untreated HuVECs form tube-like structures.

[5] = tested on: PPARγ; test: PPARγ mRNA expression in adipocytes (real-time PCR); assay type: cell-based, human; conditions: for PPAR gamma mRNA: differentiating adipocytes transfected with oligomeric compound; for PPAR-gamma mRNA: differentiating adipocytes day 10 post-induction, 24 hours after treatment; for PPAR gamma (mRNA expression): adipocytes, 250 nM oligomeric compound, day nine post-transfection, relative to control (1.0)
[6] = tested on: Glut4; test: Glut4 mRNA expression in adipocytes (real-time PCR); assay type: cell-based, human; conditions: for Glut4 (mRNA expression): adipocytes, 250 nM oligomeric compound, day nine post-transfection, relative to control (1.0)
[7] = differentiating adipocytes transfected with oligomeric compound, Table 75
[8] = differentiating adipocytes transfected with oligomeric compound
[9] = 50 nM, differentiating adipocytes day 10 post-induction, 24 hours after treatment
[10] = 100 nM, differentiating adipocytes day 10 post-induction, 24 hours after treatment
[11] = 200 nM, differentiating adipocytes day 10 post-induction, 24 hours after treatment
[12] = 300 nM, differentiating adipocytes day 10 post-induction, 24 hours after treatment
[13] = Table 20, adipocyte differentiation assay as in Example 13
[14] = adipocytes, 250 nM oligomeric compound, relative to control (1.0), Table 15
[15] = adipocytes, 250 nM oligomeric compound, relative to control (1.0), Table 16

327897 (antisense eA*e[5mC]*eA*eG*eG*e[5mC]*e[5mC]*eG*eG*eG*eA*e[5mC]*eA*eA*eG*eT*eG*e[5mC]*eA*eA*eT*eA) [compound 327897]
HSL mRNA [1, 7]: 39 percentage of untreated control (UTC)
TG (triglyceride accumulation) [2, 7]: 28 percentage of untreated control (UTC)
aP2 mRNA [3, 8]: 62 percentage of untreated control (UTC)
% Activity Relative to UTC (tube formation) ([4]; Table 59): 40.0%
PPAR gamma mRNA ([5]; Table 75): 66 percentage of untreated control (UTC)
GLUT4 mRNA [6, 7]: 32 percentage of untreated control (UTC)

327899 (antisense e[5mC]*eA*eG*eT*eG*eA*eA*eT*eT*e[5mC]*eT*eA*e[5mC]*e[5mC]*eA*eG*eT*eG*e[5mC]*e[5mC]*eA*eT*eA) [compound 327899]
HSL mRNA [1, 7]: 27 percentage of untreated control (UTC)
TG (triglyceride accumulation) [2, 7]: 25 percentage of untreated control (UTC)
aP2 mRNA [3, 8]: 47 percentage of untreated control (UTC)
% Activity Relative to UTC (tube formation) ([4]; Table 57): 34.5%
PPAR gamma mRNA ([5]; Table 75): 62 percentage of untreated control (UTC)
GLUT4 mRNA [6, 7]: 14 percentage of untreated control (UTC)

327900 (antisense e[5mC]*eT*eG*e[5mC]*e[5mC]*eT*eG*eT*e[5mC]*eT*eG*eT*eG*e[5mC]*e[5mC]*eT*eG*e[5mC]*eT*eG*eT) [compound 327900]
HSL mRNA [1, 7]: 21 percentage of untreated control (UTC)
TG (triglyceride accumulation) [2, 7]: 26 percentage of untreated control (UTC)
aP2 mRNA [3, 8]: 32 percentage of untreated control (UTC)
% Activity Relative to UTC (tube formation) ([4]; Table 57): 55.2%
PPAR gamma mRNA ([5]; Table 75): 55 percentage of untreated control (UTC)
GLUT4 mRNA [6, 7]: 12 percentage of untreated control (UTC)

327901 (antisense eT*eG*eA*eG*e[5mC]*eT*eA*e[5mC]*eA*eG*eT*eG*e[5mC]*eT*eT*e[5mC]*eA*eT*e[5mC]*eT*e[5mC]*eA) [compound 327901]
HSL mRNA [1, 9]: 89.5 % UTC
HSL mRNA [1, 10]: 73.5 % UTC
HSL mRNA [1, 11]: 40.2 % UTC
HSL mRNA [1, 12]: 11.9 % UTC
HSL [1, 13]: 0.33
HSL (mRNA expression) ([1]; Table 15): 0.33
HSL (mRNA expression) ([1]; Table 16): 0.47
Triglycerides ([2]; 50 nM): 85.3 % UTC
Triglycerides ([2]; 100 nM): 68.9 % UTC
Triglycerides ([2]; 200 nM): 34.0 % UTC
Triglycerides ([2]; 300 nM): 23.0 % UTC
TG [2, 13]: 0.54
TG (triglyceride accumulation) [2, 14]: 0.54
TG (triglyceride accumulation) [2, 15]: 0.53
AP2 mRNA [3, 9]: 78.3 % UTC
AP2 mRNA [3, 10]: 64.6 % UTC
AP2 mRNA [3, 11]: 39.0 % UTC
AP2 mRNA [3, 12]: 22.4 % UTC
AP2 [3, 13]: 0.42
AP2 (mRNA expression) ([3]; Table 15): 0.42
AP2 (mRNA expression) ([3]; Table 16): 0.47
% Activity Relative to UTC (tube formation) ([4]; Table 57): 48.3%
% Activity Relative to UTC (tube formation) ([4]; Table 59): 100.0%
PPAR-gamma mRNA ([5]; 50 nM): 74.6 % UTC
PPAR-gamma mRNA ([5]; 100 nM): 70.8 % UTC
PPAR-gamma mRNA ([5]; 200 nM): 51.8 % UTC
PPAR-gamma mRNA ([5]; 300 nM): 39.3 % UTC
PPAR gamma [5, 13]: 0.30
PPAR gamma (mRNA expression) ([5]; Table 15): 0.30
PPAR gamma (mRNA expression) ([5]; Table 16): 0.72
GLUT4 mRNA [6, 9]: 74.2 % UTC
GLUT4 mRNA [6, 10]: 49.7 % UTC
GLUT4 mRNA [6, 11]: 32.8 % UTC
GLUT4 mRNA [6, 12]: 17.4 % UTC
Glut4 [6, 13]: 0.19
Glut4 (mRNA expression) ([6]; Table 15): 0.19
Glut4 (mRNA expression) ([6]; Table 16): 0.29

327902 (antisense eG*eG*e[5mC]*eT*eG*eT*e[5mC]*eA*eA*eT*eT*e[5mC]*eA*eT*eA*eG*eG*eT*e[5mC]*eA*eG) [compound 327902]
HSL mRNA [1, 7]: 56 percentage of untreated control (UTC)
TG (triglyceride accumulation) [2, 7]: 55 percentage of untreated control (UTC)
aP2 mRNA [3, 8]: 58 percentage of untreated control (UTC)
% Activity Relative to UTC (tube formation) ([4]; Table 57): 41.4%
PPAR gamma mRNA ([5]; Table 75): 56 percentage of untreated control (UTC)
GLUT4 mRNA [6, 7]: 15 percentage of untreated control (UTC)

327903 (antisense eA*eA*e[5mC]*eT*eA*eT*eA*e[5mC]*eA*eA*e[5mC]*e[5mC]*eT*eA*e[5mC]*eT*eA*e[5mC]*e[5mC]*eT*e[5mC]*eA) [compound 327903]
HSL (mRNA expression) ([1]; Table 15): 1.23
HSL (mRNA expression) ([1]; Table 16): 0.80
TG (triglyceride accumulation) [2, 14]: 1.20
TG (triglyceride accumulation) [2, 15]: 0.58
AP2 (mRNA expression) ([3]; Table 15): 1.15
AP2 (mRNA expression) ([3]; Table 16): 0.92
% Activity Relative to UTC (tube formation) ([4]; Table 57): 103.5%
PPAR gamma (mRNA expression) ([5]; Table 15): 1.19
PPAR gamma (mRNA expression) ([5]; Table 16): 0.98
Glut4 (mRNA expression) ([6]; Table 15): 1.72
Glut4 (mRNA expression) ([6]; Table 16): 1.12

327904 (antisense eA*e[5mC]*eT*e[5mC]*eA*e[5mC]*e[5mC]*eG*eA*e[5mC]*eA*eG*e[5mC]*eG*eT*eT*eG*eA*eA*eT*eG*eT*eT) [compound 327904]
HSL mRNA [1, 8]: 42 percentage of untreated control (UTC)
TG (triglyceride accumulation) [2, 8]: 56 percentage of untreated control (UTC)
AP2 mRNA [3, 8]: 65 percentage of untreated control (UTC)
% Activity Relative to UTC (tube formation) ([4]; Table 57): 89.7%
PPAR gamma mRNA [5]: 54 percentage of untreated control (UTC)
GLUT4 mRNA [6, 8]: 40 percentage of untreated control (UTC)

From US8178506B2, “Oligomeric compounds and compositions for use in modulation of small non-coding RNAs” (Regulus Therapeutics Inc., priority 2003, dated 2012)
